The values that follow come from article PMC8170132, “Kinetics of Abacavir-Induced Remodelling of the Major Histocompatibility Complex Class I Peptide Repertoire” (Frontiers in Immunology, 2021).

One data set addresses HLA-B*58:01 (Homo sapiens, UniProt P01889, A329T/C349S/D201E/D98Y/E176V/E187L/E204Q/E69T/G107R/I218V/I90N/K202T/L105A/L119I/N104I/N87E/Q89R/Q94S/R106L/R155S/R180L/R86G/S101N/S121R/S35A/S48A/T118I/V127L/V306I/V36M/Y140S/Y91M). The following applies: ref [20]–[22]; cited from earlier work.
In data set [1] the target is T1, HLA-B*57:01 (Homo sapiens, UniProt P01889, D201E/D98Y/E176V/E187L/E204Q/E69M/E70A/G107R/I90N/K202T/L105A/L119I/N104I/N87E/Q89R/Q94S/R106L/R155S/R180L/R86G/S101N/S121V/S35A/S48A/T118I/V36M/Y140S/Y91M). The note with it: ref [20]–[22]; cited from earlier work.
For data set [2], the target named is T1, HLA-B*57:01. The following applies: 721.220.B*57:01 +/- tapasin, 60 µM abacavir 20 hrs, Brefeldin A 0-6 hrs.
The test system of data set [3] is abacavir responsive CD8+ T cells. Kind of data set: Intracellular cytokine staining of abacavir responsive CD8+ T cells stimulated with abacavir treated C1R.B*57:01. The following applies: 35 µM abacavir 0-30 h, three T cell lines. In kind it is cell-based, human. How it is done: Stimulator PBMCs were subsequently added to responder PBMC at a 2:1 responder:stimulator ratio and the final volume of culture made up to 2 ml with RF10. Cells were incubated at 37°C, 5% CO2 and fed with fresh media as required to sustain cell outgrowth. On day 5 of culture, cell media were supplemented with rhIL-2 (Cetus) at 20 U/ml and maintained at this concentration thereafter. […] C1R.B*57:01 were mixed with 1 × 10^5 T cells at a 1:2 ratio in a volume of 200 μl fresh RH10. […] Sigma-Aldrich) was added to a final concentration of 10 μg/ml and incubated a further 4 h. Cells were stained with anti-CD4-PE [clone RPA-T4, Becton Dickinson (BD) Biosciences, USA] and anti-CD8-PerCP-Cy™5.5 (clone SK1, BD Biosciences, 25 min, 4°C), fixed with 1% PFA/PBS (20 min, room temperature), washed in PBS, then permeabilised with 0.3% saponin (Sigma-Aldrich) in PBS containing anti-Interferon-γ (IFNγ)-PE-Cy™7 (clone B27, BD Biosciences) and anti-tumour necrosis factor (TNF)-PE-V450 (clone Mab11, BD Biosciences), and acquired by flow cytometry using an LSR II flow cytometer and BD […]™ software (BD). The percentage of CD8^+ T cells producing IFNγ and TNF was determined via analysis using FlowJo software (BD).

The next data set has as its system C1R.B*57:01 cells. The experiment in a line: Cellular proteome comparison by label free quantitation LC-MS/MS. The note with it: 35 µM abacavir, 48 h, 2,306 proteins, 5% FDR. The data set is classed as cell-based, human.
Data set [4] deals with T1, HLA-B*57:01. The experiment in a line: LC-MRM-MS quantitation of HLA ligands and co-purified abacavir from abacavir treated C1R.B*57:01 cells. The note with it: C1R.B*57:01, 35 µM abacavir. In kind it is cell-based.
The target of data set [5] is T1, HLA-B*57:01. The following applies: 60 µM abacavir.
Data set [6] deals with T1, HLA-B*57:01. The note with it: 721.220.B*57:01 cells, 60 µM abacavir, 37 and 50°C vs 4°C.

For the compound `Oc1ncnc2[nH]ncc12` [allopurinol], the “Odds ratio of hypersensitivity reaction with HLA-B*58:01” value at HLA-B*58:01 was above 500.

As to `Nc1nc(NC2CC2)c2ncn([C@H]3C=C[C@@H](CO)C3)c2n1` [abacavir], at HLA-B*57:01 [1], the “Odds ratio of hypersensitivity reaction with HLA-B*57:01” value is given as above 500. Further, the “Effect on expression level and stability of cell surface HLA-B*57:01” value at HLA-B*57:01 [2] is listed as “did not significantly alter either the expression level or the stability”. Moreover, the “Immunogenicity of abacavir treated antigen presenting cells (IFNγ and/or TNF production by CD8+ T cells)” value in data set [3] is “increase in antigen presenting cell immunogenicity was observed over the first 12 h”. Further, the “Change in protein expression of the cellular proteome” value in the data set with C1R.B*57:01 cells is reported as “no protein showed significant changes in expression”. Moreover, the “Time of abacavir treatment after which changes in the immunopeptidome were evident” value at HLA-B*57:01 [4] is 2 h. In addition, on HLA-B*57:01 [4] (0-16 h), the “Co-purification of HLA-B*57:01-bound abacavir over the time course” value is “increasing amounts”. Moreover, the “Effect on HLA-B*57:01 maturation (Endo-H resistance), tapasin-reconstituted” value on HLA-B*57:01 [5] (721.220.B*57:01.tapasin cells) is given as “unaffected”. Further, the “Effect on HLA-B*57:01 maturation (Endo-H resistance), tapasin absent” value at HLA-B*57:01 [5] (721.220.B*57:01 cells) was “did not significantly alter this pattern of biogenesis”. Further, at HLA-B*57:01 [6], the “Effect on thermal stability profile of HLA-B*57:01, tapasin absent” value is on record as “no significant impact on the thermal stability profile”.
